The values below come from PMC5762686, “Structural ensemble-based docking simulation and biophysical studies discovered new inhibitors of Hsp90 N-terminal domain” (Scientific Reports, 2018).

Read-outs that look alike come from different tables or passages of the source.

Assay [1] has as its system Hsp90N. On the set-up: method as in PMID 19519743. Particulars: BindingDB; cited from earlier work.
Assay [2] relates to Hsp90N. On the set-up: method as in PMID 27899599. Particulars: PubChem BioAssay database AID: 712; cited from earlier work.
Assay [3] concerns the target T1, Hsp90N (Homo sapiens, UniProt P07900).
T1 construct: contains DNA corresponding to residues 1–235 of human Hsp90α; made in house; host or cells: Escherichia coli BL21 (DE3)
The assay is described as follows: Differential scanning fluorimetry (DSF), change of Tm. It is filed as binding. Particulars: apo Tm 44.4 °C, Hsp90N 2 μM, inhibitor 200 μM.
Experimental: We also measured the change in the Tm value using differential scanning fluorimetry (DSF) to support direct binding (Fig. 2C).
DSF using a RT-PCR system (CFX connect, BioRad) assessed the stability of Hsp90N in the absence and presence of the hit compounds that were identified by 2D NMR[75]. Once Sypro-Orange (5×) was added into the solution of Hsp90N with each hit compound, the fluorescence from the dye was measured with excitation at 492 nm and emission at 610 nm in a temperature-dependent manner from 30 to 90 °C. The concentrations for Hsp90N and inhibitors were 2 and 200 μM, respectively. As a control, DMSO was mixed with the protein, and the fluorescence was measured with an identical procedure. The mid-point of the melting temperature, Tm, was deduced by calculating the temperature that maximizes the differential curve of the profiles.

Another assay relates to Hsp90. Also on record: method as in PMID 16854066. The conditions noted are these: fluorescence polarization; cited from earlier work.

Take `Oc1ccc(-c2n[nH]c(=S)n2-c2ccccc2)c(O)c1` [ZINC01264822]: the IC50 in the assay on Hsp90N [1] was 0.0005 µM.

In the case of `CCc1cc(-c2n[nH]cc2-c2ccc3c(c2)OCO3)c(O)cc1O` [ZINC18130036], the IC50 with Hsp90N [2] is 2 µM.

Regarding `CO[C@H]1/C=C\C=C(/C)C(=O)NC2=CC(=O)C(NCCN(C)C)=C(C[C@@H](C)C[C@H](OC)[C@H](O)[C@@H](C)/C=C(\C)[C@@H]1OC(N)=O)C2=O` [17-DMAG], the “elevated Tm values” at Hsp90N [3] was determined as 11.3. The IC50 in the assay on Hsp90 is 0.062 µM.

Take `Cc1cc(SCC(N)=O)nc(SCC(=O)c2ccccc2)n1` [ZINC00421600]: in the assay on Hsp90N [2], the IC50 was 50 µM.
